Values joined by “and” are separate entries in the source; they are usually repeats but may differ in a detail not shown here. Equal entries are not always repeated.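 How tested: cells in 96-well plates exposed to compound for 48 hours at five concentrations. GI50: concentration for 50% inhibition of growth. TGI marks complete inhibition of growth.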
Tests used:
Assay in all cases: inhibition of tumour cell growth, NCI panel, 48 h
A549 NSCLC = system: A549 NSCLC
BT-549 breast = system: BT-549 breast
HCC-2998 colon = system: HCC-2998 colon
HOP-92 NSCLC = system: HOP-92 NSCLC
NCI-H23 lung = system: NCI-H23 lung
NCI-H522 lung = system: NCI-H522 lung
NCI/ADR-RES ovarian = system: NCI/ADR-RES ovarian
SF-295 CNS = system: SF-295 CNS
SK-MEL-2 melanoma = system: SK-MEL-2 melanoma
TK-10 renal = system: TK-10 renal

For `CC1(C)[C@@H](O[C@@H]2OC[C@@H](O[C@@H]3O[C@H](CO)[C@@H](O)[C@H](O)[C@H]3O[C@@H]3OC[C@@H](O)[C@H](O)[C@H]3O)[C@H](O)[C@H]2O[C@@H]2O[C@H](CO)[C@@H](O)[C@H](O)[C@H]2O)CC[C@]2(C)[C@H]3CC[C@]45OC[C@@]6(CC[C@](C)(C=O)C[C@H]64)[C@H](O)C[C@@]5(C)[C@]3(C)CC[C@@H]12`, the GI50 (A549 NSCLC) was 0.943 µM, the TGI (A549 NSCLC) was 1.95 µM and the GI50 (BT-549 breast) was 1.14 µM. It also gave a TGI (BT-549 breast) of 3.37 µM, a GI50 (HCC-2998 colon) of 0.931 µM and a TGI (HCC-2998 colon) of 1.75 µM. The GI50 (HOP-92 NSCLC) was 0.704 µM, the TGI (HOP-92 NSCLC) was 1.54 µM and the GI50 (NCI-H23 lung) was 0.984 µM. It also gave a TGI (NCI-H23 lung) of 2.12 µM, a GI50 (NCI-H522 lung) of 0.903 µM and a TGI (NCI-H522 lung) of 1.83 µM. The GI50 (NCI/ADR-RES ovarian) was 1.24 µM, the TGI (NCI/ADR-RES ovarian) was 3.43 µM and the GI50 (SF-295 CNS) was 0.892 µM. The TGI (SF-295 CNS) was 1.64 µM, the GI50 (SK-MEL-2 melanoma) was 0.886 µM and the TGI (SK-MEL-2 melanoma) was 1.74 µM. For the same molecule, the GI50 (TK-10 renal) was 0.945 µM and the TGI (TK-10 renal) was 1.83 µM.
With `CC(=Nc1ccccc1)C1=C(O)C(Cc2ccccc2)NC1=O` (configuration not stated) the GI50 (A549 NSCLC) was 0.052 µM, the TGI (A549 NSCLC) was > 100 µM and the GI50 (BT-549 breast) was 0.0578 µM. The TGI (BT-549 breast) was 0.501 µM, the GI50 (HCC-2998 colon) was 0.0779 µM and the TGI (HCC-2998 colon) was 0.64 µM. The GI50 (HOP-92 NSCLC) was 0.0515 µM, the TGI (HOP-92 NSCLC) was > 100 µM and the GI50 (NCI-H23 lung) was 0.0669 µM. The TGI (NCI-H23 lung) was > 100 µM, the GI50 (NCI-H522 lung) was 0.0216 µM and the TGI (NCI-H522 lung) was 0.0645 µM. It also gave a GI50 (NCI/ADR-RES ovarian) of 0.03 µM, a TGI (NCI/ADR-RES ovarian) of 0.117 µM and a GI50 (SF-295 CNS) of 0.0238 µM. The TGI (SF-295 CNS) was 0.0721 µM, the GI50 (SK-MEL-2 melanoma) was 0.0447 µM and the TGI (SK-MEL-2 melanoma) was > 31.5 µM. For the same molecule, the GI50 (TK-10 renal) was 0.042 µM and the TGI (TK-10 renal) was > 100 µM.
`CC(=O)O[C@]1(C(C)=O)CC[C@H]2[C@@H]3C=C(C)C4=CC(=O)CC[C@]4(C)[C@H]3CC[C@@]21C` was tested, and the GI50 (A549 NSCLC) was > 78.1 µM, the TGI (A549 NSCLC) was > 100 µM and the GI50 (BT-549 breast) was 37.4 µM. The TGI (BT-549 breast) was > 100 µM, the GI50 (HCC-2998 colon) was > 100 µM and the TGI (HCC-2998 colon) was > 100 µM. For the same molecule, the GI50 (HOP-92 NSCLC) was 14.8 µM, the TGI (HOP-92 NSCLC) was > 100 µM and the GI50 (NCI-H23 lung) was > 100 µM. For the same molecule, the TGI (NCI-H23 lung) was > 100 µM, the GI50 (NCI-H522 lung) was 53.2 µM and the TGI (NCI-H522 lung) was > 100 µM. The GI50 (NCI/ADR-RES ovarian) was 46.9 µM, the TGI (NCI/ADR-RES ovarian) was > 100 µM and the GI50 (SF-295 CNS) was > 83.3 µM. For the same molecule, the TGI (SF-295 CNS) was > 100 µM, the GI50 (SK-MEL-2 melanoma) was > 100 µM and the TGI (SK-MEL-2 melanoma) was > 100 µM. The GI50 (TK-10 renal) was > 77.6 µM and the TGI (TK-10 renal) was > 100 µM.
For `O=C(NP(=O)(N1CC1)N1CC1)c1cc(I)ccc1I`, the TGI (A549 NSCLC) was > 100 µM, the TGI (BT-549 breast) was > 100 µM and the TGI (HCC-2998 colon) was > 100 µM. The TGI (HOP-92 NSCLC) was > 100 µM, the TGI (NCI-H23 lung) was 56.1 µM and the TGI (NCI-H522 lung) was > 92.9 µM. The TGI (NCI/ADR-RES ovarian) was > 66.1 µM, the TGI (SF-295 CNS) was > 100 µM and the TGI (SK-MEL-2 melanoma) was > 100 µM. For the same molecule, the TGI (TK-10 renal) was > 100 µM.
For `CC1OC(OC2C(O[C@H]3CC[C@@]4(C)C(=CC[C@H]5[C@@H]6C[C@@H]7O[C@]8(CC[C@H](C)CN8)[C@@H](C)[C@@H]7[C@@]6(C)CC[C@@H]54)C3)OC(CO)C(O)C2OC2OC(CO)C(O)C(O)C2O)C(O)C(O)C1O` (some centres not stated), the TGI (A549 NSCLC) was 34.5 µM, the TGI (BT-549 breast) was 30.9 µM and the TGI (HCC-2998 colon) was 32.2 µM. It also gave a TGI (HOP-92 NSCLC) of 35.5 µM, a TGI (NCI-H23 lung) of 32.5 µM and a TGI (NCI-H522 lung) of 30.3 µM. It also gave a TGI (NCI/ADR-RES ovarian) of 32.5 µM, a TGI (SF-295 CNS) of 34.1 µM and a TGI (SK-MEL-2 melanoma) of 32.4 µM. For the same molecule, the TGI (TK-10 renal) was 31.1 µM.
`COc1cc(C2=C(C#Cc3ccccc3)COC2=O)cc(OC)c1OC` was tested, and the GI50 (A549 NSCLC) was 14.2 µM, the TGI (A549 NSCLC) was > 100 µM and the GI50 (BT-549 breast) was 3.26 µM. For the same molecule, the TGI (BT-549 breast) was 63.1 µM, the GI50 (HCC-2998 colon) was 12.4 µM and the TGI (HCC-2998 colon) was 25.8 µM. The GI50 (HOP-92 NSCLC) was 2.77 µM, the TGI (HOP-92 NSCLC) was 10.6 µM and the GI50 (NCI-H23 lung) was 5.51 µM. For the same molecule, the TGI (NCI-H23 lung) was 12.8 µM, the GI50 (NCI-H522 lung) was 3.01 µM and the TGI (NCI-H522 lung) was > 33.7 µM. The GI50 (NCI/ADR-RES ovarian) was 5.43 µM, the TGI (NCI/ADR-RES ovarian) was 22.2 µM and the GI50 (SF-295 CNS) was 0.687 µM. The GI50 (SK-MEL-2 melanoma) was 5.35 µM, the TGI (SK-MEL-2 melanoma) was > 90.9 µM and the GI50 (TK-10 renal) was 1.9 µM. For the same molecule, the TGI (TK-10 renal) was 5.97 µM.
With `CCCCCCCCCCCC1CCCC(C)N1` (configuration not stated) the GI50 (A549 NSCLC) was 13.4 µM, the TGI (A549 NSCLC) was 32.7 µM and 164 µM and the GI50 (BT-549 breast) was 7.39 µM. The TGI (BT-549 breast) was 22.6 µM, the GI50 (HCC-2998 colon) was 2.05 µM and the GI50 (HOP-92 NSCLC) was 6.67 µM. For the same molecule, the TGI (HOP-92 NSCLC) was 31.8 µM and 90.2 µM, the GI50 (NCI-H23 lung) was 8.49 µM and the TGI (NCI-H23 lung) was 23.9 µM and 133 µM. The GI50 (NCI-H522 lung) was 7.29 µM, the TGI (NCI-H522 lung) was 19.9 µM and 96.4 µM and the GI50 (NCI/ADR-RES ovarian) was 11.9 µM. For the same molecule, the TGI (NCI/ADR-RES ovarian) was 27.3 µM and 161 µM, the GI50 (SF-295 CNS) was 13.5 µM and the TGI (SF-295 CNS) was 28.3 µM and 154 µM. The GI50 (SK-MEL-2 melanoma) was 5.88 µM, the GI50 (TK-10 renal) was 6.47 µM and the TGI (TK-10 renal) was 19.3 µM.

From PubChem BioAssay (NCI)
